Starred links: 1 amine or outer side, 2 acyl side, 3 side chain; linkers in the order of their positions; H or OH if unused. Positions of bridges follow the written chain, without caps; N, C: chain ends. Non-standard residues stand in square brackets, D forms with d. Residues, ends and D or L forms follow the SMILES beside them. *: point of attachment. X33 = C[N+](C)(C)CCCCc1cn(-c2ccc(C[C@H](N[*:1])C(=O)[*:2])cc2)nn1; Me3N+(CH2)2O(CH2)2O(CH2)2CO = C[N+](C)(C)CCOCCOCCC(=O)*; X67 = COCc1cn(-c2ccc(C[C@H](N[*:1])C(=O)[*:2])cc2)nn1; Trp(7-Me) = Cc1cccc2c(C[C@H](N)C(=O)O)c[nH]c12; 2Nal = N[C@@H](Cc1ccc2ccccc2c1)C(=O)O; X74 = C[N+]1(CCOCCOCC*)CCC(F)(F)CC1; 3Pal = N[C@@H](Cc1cccnc1)C(=O)O; Lys(Me) = CNCCCC[C@H](N)C(=O)O; Pen = CC(C)(S)[C@H](N)C(=O)O; X70 = C[N+](C)(C)CCO/N=C\C*; X85 = C[N+](C)(C)CCO/N=C/C*; X8 = C[N+](C)(C)CCCCCCCC*; Thp = NC1(C(=O)O)CCOCC1; X3 = C[N+](C)(C)CCCCC*; Sar = CNCC(=O)O
Assay: Exposed Polar Surface Area (EPSA)
Format: physicochemical
Conditions: SFC on Chirex 3014 column; sample 1 mM DMSO stock; read-out: EPSA
In short: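 Chirex 3014 column, 35 °C, 4 mL/min; CO2/MeOH + 20 mM NH4 formate, 5→60% modifier at 20%/min. UV/MS detection. EPSA (Å^2) from retention time vs 8-standard calibration line; duplicates; 1 mM DMSO stock injected undiluted.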

Row | Structure (SMILES) | EPSA [A^2]
1 | CC(=O)N(C)CCCC[C@@H]1NC(=O)[C@H](Cc2c[nH]c3c(C)cccc23)NC(=O)[C@H]([C@@H](C)O)NC(=O)[C@H](CC(=O)N(C)C)NC(=O)[C@@H](NC(=O)CCOCCOCC[N+](C)(C)C)C(C)(C)SSC(C)(C)[C@@H](C(=O)N[C@@H](Cc2ccc(OCCCCCCCC[N+](C)(C)C)cc2)C(=O)N[C@@H](Cc2ccc3ccccc3c2)C(=O)NC2(C(=O)N[C@@H](CCCCN(C)C(C)=O)C(=O)N[C@@H](CC(N)=O)C(=O)N[C@@H](Cc3cccnc3)C(=O)N(C)CC(=O)N(C)C)CCOCC2)NC1=O [compound 295, cPEG3aCO-Pen(3)-N(N(Me)2)-T-7MeW-K(NMeAc)-Pen(3)-TMA8F-2Nal-THP-K(NMeAc)-N-3Pya-Sar-CON(Me)2] ({Me3N+(CH2)2O(CH2)2O(CH2)2CO}-[Pen]D(NMe2)T[Trp(7-Me)][Lys(Me)](Ac)[Pen]Y(X8)[2Nal][Thp][Lys(Me)](Ac)N[3Pal][Sar]-NMe2; disulfide 1-6) | 150
2 | CC(=O)N(C)CCCC[C@@H]1NC(=O)[C@H](Cc2c[nH]c3c(C)cccc23)NC(=O)[C@H]([C@@H](C)O)NC(=O)[C@H](CC(=O)N(C)C)NC(=O)[C@@H](NC(=O)CCOCCOCC[N+](C)(C)C)C(C)(C)SSC(C)(C)[C@@H](C(=O)N[C@@H](Cc2ccc(OCCOCCOCC[N+]3(C)CCC(F)(F)CC3)cc2)C(=O)N[C@@H](Cc2ccc3ccccc3c2)C(=O)NC2(C(=O)N[C@@H](CCCCN(C)C(C)=O)C(=O)N[C@@H](CC(N)=O)C(=O)N[C@@H](Cc3cccnc3)C(=O)N(C)CC(=O)N(C)C)CCOCC2)NC1=O [compound 298, cPEG3aCO-Pen(3)-N(N(Me)2)-T-7MeW-K(NMeAc)-Pen(3)-dFPPEG3F-2Nal-THP-K(NMeAc)-N-3Pya-Sar-CON(Me)2] ({Me3N+(CH2)2O(CH2)2O(CH2)2CO}-[Pen]D(NMe2)T[Trp(7-Me)][Lys(Me)](Ac)[Pen]Y(X74)[2Nal][Thp][Lys(Me)](Ac)N[3Pal][Sar]-NMe2; disulfide 1-6) | 149
3 | CC(=O)N(C)CCCC[C@@H]1NC(=O)[C@H](Cc2c[nH]c3c(C)cccc23)NC(=O)[C@H]([C@@H](C)O)NC(=O)[C@H](CC(=O)N(C)C)NC(=O)[C@@H](NC(=O)CCOCCOCC[N+](C)(C)C)C(C)(C)SSC(C)(C)[C@@H](C(=O)N[C@@H](Cc2ccc(-n3cc(CCCC[N+](C)(C)C)nn3)cc2)C(=O)N[C@@H](Cc2ccc3ccccc3c2)C(=O)NC2(C(=O)N[C@@H](CCCCN(C)C(C)=O)C(=O)N[C@@H](CC(N)=O)C(=O)N[C@@H](Cc3cccnc3)C(=O)N(C)CC(=O)N(C)C)CCOCC2)NC1=O [compound 302, cPEG3aCO-Pen(3)-N(N(Me)2)-T-7MeW-K(NMeAc)-Pen(3)-F(4TzlTMA4)-] ({Me3N+(CH2)2O(CH2)2O(CH2)2CO}-[Pen]D(NMe2)T[Trp(7-Me)][Lys(Me)](Ac)[Pen][X33][2Nal][Thp][Lys(Me)](Ac)N[3Pal][Sar]-NMe2; disulfide 1-6) | 155
4 | COCc1cn(-c2ccc(C[C@H](NC(=O)[C@H]3NC(=O)[C@H](CCCCN(C)C(C)=O)NC(=O)[C@H](Cc4c[nH]c5c(C)cccc45)NC(=O)[C@H]([C@@H](C)O)NC(=O)[C@H](CC(=O)N(C)C)NC(=O)[C@@H](NC(=O)CCOCCOCC[N+](C)(C)C)C(C)(C)SSC3(C)C)C(=O)N[C@@H](Cc3ccc4ccccc4c3)C(=O)NC3(C(=O)N[C@@H](CCCCN(C)C(C)=O)C(=O)N[C@@H](CC(N)=O)C(=O)N[C@@H](Cc4cccnc4)C(=O)N(C)CC(=O)N(C)C)CCOCC3)cc2)nn1 [compound 303, cPEG3aCO-Pen(3)-N(N(Me)2)-T-7MeW-K(NMeAc)-Pen(3)-F(4TzlMME)-2Nal-THP-K(NMeAc)-N-3Pya-Sar-CON(Me)2] ({Me3N+(CH2)2O(CH2)2O(CH2)2CO}-[Pen]D(NMe2)T[Trp(7-Me)][Lys(Me)](Ac)[Pen][X67][2Nal][Thp][Lys(Me)](Ac)N[3Pal][Sar]-NMe2; disulfide 1-6) | 152
5 | CC(=O)N(C)CCCC[C@@H]1NC(=O)[C@H](Cc2c[nH]c3c(C)cccc23)NC(=O)[C@H]([C@@H](C)O)NC(=O)[C@H](CC(=O)N(C)C)NC(=O)[C@@H](NC(=O)CCOCCOCC[N+](C)(C)C)C(C)(C)SSC(C)(C)[C@@H](C(=O)N[C@@H](Cc2ccc(OC/C=N/OCC[N+](C)(C)C)cc2)C(=O)N[C@@H](Cc2ccc3ccccc3c2)C(=O)NC2(C(=O)N[C@@H](CCCCN(C)C(C)=O)C(=O)N[C@@H](CC(N)=O)C(=O)N[C@@H](Cc3cccnc3)C(=O)N(C)CC(=O)N(C)C)CCOCC2)NC1=O [compound 305, cPEG3aCO-Pen(3)-N(N(Me)2)-T-7MeW-K(NMeAc)-Pen(3)-Y(OEOXlMECh)-2Nal-THP-K(NMeAc)-N-3Pya-Sar-CON(Me)2] ({Me3N+(CH2)2O(CH2)2O(CH2)2CO}-[Pen]D(NMe2)T[Trp(7-Me)][Lys(Me)](Ac)[Pen]Y(X85)[2Nal][Thp][Lys(Me)](Ac)N[3Pal][Sar]-NMe2; disulfide 1-6 (inferred)) | 153
6 | CC(=O)N(C)CCCC[C@@H]1NC(=O)[C@H](Cc2c[nH]c3c(C)cccc23)NC(=O)[C@H]([C@@H](C)O)NC(=O)[C@H](CC(=O)N(C)C)NC(=O)[C@@H](NC(=O)CCOCCOCC[N+](C)(C)C)C(C)(C)SSC(C)(C)[C@@H](C(=O)N[C@@H](Cc2ccc(OC/C=N\OCC[N+](C)(C)C)cc2)C(=O)N[C@@H](Cc2ccc3ccccc3c2)C(=O)NC2(C(=O)N[C@@H](CCCCN(C)C(C)=O)C(=O)N[C@@H](CC(N)=O)C(=O)N[C@@H](Cc3cccnc3)C(=O)N(C)CC(=O)N(C)C)CCOCC2)NC1=O [compound 306, cPEG3aCO-Pen(3)-N(N(Me)2)-T-7MeW-K(NMeAc)-Pen(3)-Y(OZOXlMECh)-2Nal-THP-K(NMeAc)-N-3Pya-Sar-CON(Me)2] ({Me3N+(CH2)2O(CH2)2O(CH2)2CO}-[Pen]D(NMe2)T[Trp(7-Me)][Lys(Me)](Ac)[Pen]Y(X70)[2Nal][Thp][Lys(Me)](Ac)N[3Pal][Sar]-NMe2; disulfide 1-6) | 153
7 | CC(=O)N(C)CCCC[C@@H]1NC(=O)[C@H](Cc2c[nH]c3c(C)cccc23)NC(=O)[C@H]([C@@H](C)O)NC(=O)[C@H](CC(=O)N(C)C)NC(=O)[C@@H](NC(=O)CCOCCOCC[N+](C)(C)C)C(C)(C)SSC(C)(C)[C@@H](C(=O)N[C@@H](Cc2ccc(OCCCCC[N+](C)(C)C)cc2)C(=O)N[C@@H](Cc2ccc3ccccc3c2)C(=O)NC2(C(=O)N[C@@H](CCC(=O)N(C)C)C(=O)N[C@@H](CC(N)=O)C(=O)N[C@@H](Cc3cccnc3)C(=O)N(C)CC(=O)N(C)C)CCOCC2)NC1=O [compound 310, cPEG3aCO-Pen(3)-N(N(Me)2)-T-7MeW-K(NMeAC)-Pen(3)-TMAPF-2Nal-THP-Q(N(Me)2)-N-3Pya-Sar-CON(Me)2] ({Me3N+(CH2)2O(CH2)2O(CH2)2CO}-[Pen]D(NMe2)T[Trp(7-Me)][Lys(Me)](Ac)[Pen]Y(X3)[2Nal][Thp]E(NMe2)N[3Pal][Sar]-NMe2; disulfide 1-6) | 152
8 | CC(=O)N(C)CCCC[C@H](NC(=O)C1(NC(=O)[C@H](Cc2ccc3ccccc3c2)NC(=O)[C@H](Cc2ccc(OCCCCC[N+](C)(C)C)cc2)NC(=O)[C@H]2NC(=O)[C@H](CCC(=O)N(C)C)NC(=O)[C@H](Cc3c[nH]c4c(C)cccc34)NC(=O)[C@H]([C@@H](C)O)NC(=O)[C@H](CC(=O)N(C)C)NC(=O)[C@@H](NC(=O)CCOCCOCC[N+](C)(C)C)C(C)(C)SSC2(C)C)CCOCC1)C(=O)N[C@@H](CC(N)=O)C(=O)N[C@@H](Cc1cccnc1)C(=O)N(C)CC(=O)N(C)C [compound 312, cPEG3aCO-Pen(3)-N(N(Me)2)-T-7MeW-Q(N(Me)2)-Pen(3)-TMAPF-2Nal-THP-K(NMeAC)-N-3Pya-Sar-CON(Me)2] ({Me3N+(CH2)2O(CH2)2O(CH2)2CO}-[Pen]D(NMe2)T[Trp(7-Me)]E(NMe2)[Pen]Y(X3)[2Nal][Thp][Lys(Me)](Ac)N[3Pal][Sar]-NMe2; disulfide 1-6) | 151
